Measurements published in patent US10457655B2, “Compounds and compositions for inhibition of FASN” (FORMA Therapeutics, Inc., priority 2013, dated 2019).
Where two headings read alike, the source gives them in different places.

Target: FASN enzyme (Homo sapiens, UniProt P49327)
Experiment: Enzymatic Assay for FASN Inhibitors
Type: biochemical
Summary of the method: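 40 nM FASN preincubated with compound 60 min at 25° C in HEPES pH 7.3 buffer with 0.04% Triton X-100. Then 20 μM acetyl-CoA, 60 μM malonyl-CoA and 100 μM NADPH added for 90 min, quenched with CPM thiol probe; fluorescence 360/530 nm, IC50 by four-parameter fit.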

[1] = FASN enzymatic assay, Table 2-3
[2] = FASN enzymatic assay, Table 2-2

FASN enzyme, sequence (P49327 whole entry): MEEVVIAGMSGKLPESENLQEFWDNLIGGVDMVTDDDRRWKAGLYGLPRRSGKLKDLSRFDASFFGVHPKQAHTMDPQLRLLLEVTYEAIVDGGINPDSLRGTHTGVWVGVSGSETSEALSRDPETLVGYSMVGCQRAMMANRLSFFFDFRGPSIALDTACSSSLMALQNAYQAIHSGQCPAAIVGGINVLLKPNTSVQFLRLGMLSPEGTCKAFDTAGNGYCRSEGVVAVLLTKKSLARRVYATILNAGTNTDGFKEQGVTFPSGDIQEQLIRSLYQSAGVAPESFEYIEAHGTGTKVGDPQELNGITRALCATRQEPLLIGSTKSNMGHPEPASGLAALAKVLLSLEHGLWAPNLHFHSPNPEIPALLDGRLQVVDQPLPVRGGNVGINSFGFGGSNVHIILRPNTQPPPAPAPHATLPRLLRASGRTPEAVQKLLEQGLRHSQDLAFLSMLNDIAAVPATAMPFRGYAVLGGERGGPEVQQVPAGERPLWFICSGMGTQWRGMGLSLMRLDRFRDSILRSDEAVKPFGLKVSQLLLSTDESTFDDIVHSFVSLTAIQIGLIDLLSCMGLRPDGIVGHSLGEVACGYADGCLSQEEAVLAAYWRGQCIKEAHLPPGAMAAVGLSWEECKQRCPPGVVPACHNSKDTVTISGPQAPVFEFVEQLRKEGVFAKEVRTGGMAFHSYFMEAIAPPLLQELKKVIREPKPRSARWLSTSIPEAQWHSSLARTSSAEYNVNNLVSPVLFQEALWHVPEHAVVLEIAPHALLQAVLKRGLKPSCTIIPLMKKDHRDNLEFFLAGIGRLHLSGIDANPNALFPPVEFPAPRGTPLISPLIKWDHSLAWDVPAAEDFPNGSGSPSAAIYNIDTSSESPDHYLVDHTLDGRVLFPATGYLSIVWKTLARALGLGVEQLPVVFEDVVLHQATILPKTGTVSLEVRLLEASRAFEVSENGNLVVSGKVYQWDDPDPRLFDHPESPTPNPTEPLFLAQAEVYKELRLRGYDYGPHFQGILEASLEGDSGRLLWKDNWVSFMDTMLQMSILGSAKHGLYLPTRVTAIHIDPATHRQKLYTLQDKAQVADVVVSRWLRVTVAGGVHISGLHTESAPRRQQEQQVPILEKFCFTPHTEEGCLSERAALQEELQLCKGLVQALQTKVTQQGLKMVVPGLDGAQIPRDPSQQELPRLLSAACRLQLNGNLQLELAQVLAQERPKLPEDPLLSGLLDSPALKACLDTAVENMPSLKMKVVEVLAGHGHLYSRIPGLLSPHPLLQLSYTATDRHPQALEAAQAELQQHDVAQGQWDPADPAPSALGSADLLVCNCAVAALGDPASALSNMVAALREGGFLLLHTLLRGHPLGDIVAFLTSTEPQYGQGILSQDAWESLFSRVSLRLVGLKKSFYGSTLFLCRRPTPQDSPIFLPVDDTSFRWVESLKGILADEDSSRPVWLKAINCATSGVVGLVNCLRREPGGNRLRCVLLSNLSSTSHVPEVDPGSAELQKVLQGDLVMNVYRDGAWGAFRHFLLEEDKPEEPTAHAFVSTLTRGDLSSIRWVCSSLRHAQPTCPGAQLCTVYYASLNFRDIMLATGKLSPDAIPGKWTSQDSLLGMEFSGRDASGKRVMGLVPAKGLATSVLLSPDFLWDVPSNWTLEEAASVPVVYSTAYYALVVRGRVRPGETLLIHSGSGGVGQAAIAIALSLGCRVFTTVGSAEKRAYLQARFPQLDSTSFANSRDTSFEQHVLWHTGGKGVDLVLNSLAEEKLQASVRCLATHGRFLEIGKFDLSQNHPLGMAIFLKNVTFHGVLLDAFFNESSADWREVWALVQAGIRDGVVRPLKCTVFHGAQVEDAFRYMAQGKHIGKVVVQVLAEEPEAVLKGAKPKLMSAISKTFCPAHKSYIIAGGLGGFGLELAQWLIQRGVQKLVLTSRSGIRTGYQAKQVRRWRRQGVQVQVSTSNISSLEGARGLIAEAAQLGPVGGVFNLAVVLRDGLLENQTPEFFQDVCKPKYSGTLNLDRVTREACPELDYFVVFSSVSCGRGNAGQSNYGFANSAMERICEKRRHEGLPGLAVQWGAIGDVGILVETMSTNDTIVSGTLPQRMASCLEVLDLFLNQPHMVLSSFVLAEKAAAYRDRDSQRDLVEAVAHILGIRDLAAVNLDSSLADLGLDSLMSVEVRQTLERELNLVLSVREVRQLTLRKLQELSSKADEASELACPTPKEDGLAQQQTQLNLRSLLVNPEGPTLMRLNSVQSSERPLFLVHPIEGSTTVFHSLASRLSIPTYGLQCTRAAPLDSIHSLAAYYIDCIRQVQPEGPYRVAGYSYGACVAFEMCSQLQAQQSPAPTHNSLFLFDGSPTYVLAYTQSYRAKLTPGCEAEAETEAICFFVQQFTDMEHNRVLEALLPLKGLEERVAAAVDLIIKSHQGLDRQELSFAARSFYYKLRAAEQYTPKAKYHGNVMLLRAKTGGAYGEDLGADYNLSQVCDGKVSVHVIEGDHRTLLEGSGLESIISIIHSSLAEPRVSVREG

SMILES	IC50 [nM]	also measured
O=C(c1ccc(-c2ccc(C(F)(F)F)nc2)cc1)N1CCN(C(=O)C2(O)CC2)CC1 [1-{[4-({4-[6-(trifluoromethyl)pyridin-3-yl]phenyl}carbonyl)piperazin-1-yl]carbonyl}cyclopropan-1-ol]	–	IC50 [1]: ≥ 5000 nM
O=C(c1ccc(-c2ccnc3cc(C(F)(F)F)ccc23)cc1)N1CCN(C(=O)C2(O)CC2)CC1 [1-{[4-({4-[7-(trifluoromethyl)quinolin-4-yl]phenyl}carbonyl)piperazin-1-yl]carbonyl}cyclopropan-1-ol]	–	IC50 [2]: 500 to 5000 nM
O=C(c1cn2cc(-c3ccccc3)ccc2n1)N1CCN(C(=O)C2(O)CC2)CC1 [1-{[4-({6-phenylimidazo[1,2-a]pyridin-2-yl}carbonyl)piperazin-1-yl]carbonyl}cyclopropan-1-ol]	–	IC50 [1]: ≥ 5000 nM
O=C(c1ccc(-c2ccc(Cl)cc2F)cc1)N1CCN(C(=O)C2(O)CC2)C[C@H]1CO [1-{[(3S)-4-{[4-(4-chloro-2-fluorophenyl)phenyl]carbonyl}-3-(hydroxymethyl)piperazin-1-yl]carbonyl}cyclopropan-1-ol]	–	IC50 [2]: 500 to 5000 nM
O=C(c1ccc(-c2cccc(N3CCCS3(=O)=O)c2)cc1)N1CCN(C(=O)C2(O)CC2)CC1 [2-(3-{4-[4-(1-hydroxycyclopropanecarbonyl)piperazine-1-carbonyl]phenyl}phenyl)-1λ^6,2-thiazolidine-1,1-dione]	< 500	–
N#Cc1ccc2oc(-c3ccc(C(=O)N4CCN(C(=O)C5(O)CC5)CC4)cc3)nc2c1 [2-[4-({4-[(1-hydroxycyclopropyl)carbonyl]piperazin-1-yl}carbonyl)phenyl]-1,3-benzoxazole-5-carbonitrile]	< 500	–
O=C(CO)N1CCN(C(=O)c2ccc(-c3ccccc3)cc2)CC1 [2-hydroxy-1-{4-[(4-phenylphenyl)carbonyl]piperazin-1-yl}ethan-1-one]	–	IC50 [1]: ≥ 5000 nM
CC(C)(O)C(=O)N1CCN(C(=O)c2ccc(-c3ccccc3)cc2)CC1 [2-hydroxy-2-methyl-1-{4-[(4-phenylphenyl)carbonyl]piperazin-1-yl}propan-1-one]	–	IC50 [1]: ≥ 5000 nM
COC(C)(C)C(=O)N1CCN(C(=O)c2ccc(-c3ccccc3)cc2)CC1 [2-methoxy-2-methyl-1-{4-[(4-phenylphenyl)carbonyl]piperazin-1-yl}propan-1-one]	–	IC50 [1]: ≥ 5000 nM
N#Cc1ccc2c(c1)CN(c1ccc(C(=O)N3CCN(C(=O)C4(O)CC4)CC3)cc1)CC2 [2-{4-[4-(1-hydroxycyclopropanecarbonyl)piperazine-1-carbonyl]phenyl}-1,2,3,4-tetrahydroisoquinoline-7-carbonitrile]	< 500	–
CC(O)(C(=O)N1CCN(C(=O)c2ccc(-c3ccccc3)cc2)CC1)C(F)(F)F (centres unmarked) [3,3,3-trifluoro-2-hydroxy-2-methyl-1-{4-[(4-phenylphenyl)carbonyl]piperazin-1-yl}propan-1-one]	–	IC50 [1]: ≥ 5000 nM
O=C(c1ccc(-c2cccc(NS(=O)(=O)CCC(F)(F)F)c2)cc1)N1CCN(C(=O)C2(O)CC2)CC1 [3,3,3-trifluoro-N-(3-{4-[4-(1-hydroxycyclopropanecarbonyl)piperazine-1-carbonyl]phenyl}phenyl)propane-1-sulfonamide]	< 500	–
O=C(Nc1cccc(-c2ccc(C(=O)N3CCN(C(=O)C4(O)CC4)CC3)cc2)c1)C1CC(F)(F)C1 [3,3-difluoro-N-(3-{4-[4-(1-hydroxycyclopropanecarbonyl)piperazine-1-carbonyl]phenyl}phenyl)cyclobutane-1-carboxamide]	< 500	–
Nc1cc(-c2cccc(-c3ccc(C(=O)N4CCN(C(=O)C5(N)CC5)CC4)c(F)c3)c2)no1 [3-(3-{4-[4-(1-aminocyclopropanecarbonyl)piperazine-1-carbonyl]-3-fluorophenyl}phenyl)-1,2-oxazol-5-amine]	< 500	–
O=C(c1ccc(-c2cccc(S(=O)(=O)NC3CC3)c2)cc1Cl)N1CCN(C(=O)C2(O)CC2)CC1 [3-[3-chloro-4-({4-[(1-hydroxycyclopropyl)carbonyl]piperazin-1-yl}carbonyl)phenyl]-N-cyclopropylbenzene-1-sulfonamide]	< 500	–
N#CC1(c2cccc(-c3ccc(C(=O)N4CCN(C(=O)C5(O)CC5)CC4)cc3)c2)CCOCC1 [4-(3-{4-[4-(1-hydroxycyclopropanecarbonyl)piperazine-1-carbonyl]phenyl}phenyl)oxane-4-carbonitrile]	< 500	–

SMILES	IC50 [nM]	also measured
CC(C)NC(=O)c1ccc(F)c(-c2ccc(C(=O)N3CCN(C(=O)C4(O)CC4)CC3)cc2)c1 [4-fluoro-3-[4-({4-[(1-hydroxycyclopropyl)carbonyl]piperazin-1-yl}carbonyl)phenyl]-N-(propan-2-yl)benzamide]	–	IC50 [2]: 500 to 5000 nM
CNC(=O)c1ccc(F)c(-c2ccc(C(=O)N3CCN(C(=O)C4(O)CC4)CC3)cc2)c1 [4-fluoro-3-[4-({4-[(1-hydroxycyclopropyl)carbonyl]piperazin-1-yl}carbonyl)phenyl]-N-methylbenzamide]	–	IC50 [2]: 500 to 5000 nM
CN1C(=O)Cc2c(-c3ccc(C(=O)N4CCN(C(=O)C5(O)CC5)CC4)cc3)cccc21 [4-{4-[4-(1-hydroxycyclopropanecarbonyl)piperazine-1-carbonyl]phenyl}-1-methyl-2,3-dihydro-1H-indol-2-one]	< 500	–
NC(=O)c1cc2cc(-c3ccc(C(=O)N4CCN(C(=O)C5(O)CC5)CC4)cc3)ccc2[nH]1 [5-[4-({4-[(1-hydroxycyclopropyl)carbonyl]piperazin-1-yl}carbonyl)phenyl]-1H-indole-2-carboxamide]	< 500	–
O=C(c1ccc(-c2ccc3oc(=O)[nH]c3c2)cc1)N1CCN(C(=O)C2(O)CC2)CC1 [5-[4-({4-[(1-hydroxycyclopropyl)carbonyl]piperazin-1-yl}carbonyl)phenyl]-2,3-dihydro-1,3-benzoxazol-2-one]	–	IC50 [2]: 500 to 5000 nM
N#Cc1cc(F)ccc1-c1ccc(C(=O)N2CCN(C(=O)C3(O)CC3)CC2)cc1 [5-fluoro-2-[4-({4-[(1-hydroxycyclopropyl)carbonyl]piperazin-1-yl}carbonyl)phenyl]benzonitrile]	–	IC50 [1]: ≥ 5000 nM
Nc1noc2ccc(-c3ccc(C(=O)N4CCN(C(=O)C5(N)CC5)CC4)cc3)cc12 [5-{4-[4-(1-aminocyclopropanecarbonyl)piperazine-1-carbonyl]phenyl}-1,2-benzoxazol-3-amine]	< 500	–
O=C(c1ccc(-c2ccc3[nH]c(=O)oc3c2)cc1)N1CCN(C(=O)C2(O)CC2)CC1 [6-[4-({4-[(1-hydroxycyclopropyl)carbonyl]piperazin-1-yl}carbonyl)phenyl]-2,3-dihydro-1,3-benzoxazol-2-one]	–	IC50 [2]: 500 to 5000 nM
O=C(c1ccc(-c2cc(Cl)cc3[nH]c(=O)[nH]c23)cc1)N1CCN(C(=O)C2(O)CC2)CC1 [6-chloro-4-{4-[4-(1-hydroxycyclopropanecarbonyl)piperazine-1-carbonyl]phenyl}-2,3-dihydro-1H-1,3-benzodiazol-2-one]	< 500	–
N#Cc1ccc2cc(C3CCN(C(=O)N4CCN(C(=O)C5(O)CC5)CC4)CC3)ccc2c1 [6-{1-[4-(1-hydroxycyclopropanecarbonyl)piperazine-1-carbonyl]piperidin-4-yl}naphthalene-2-carbonitrile]	< 500	–
Cn1nc(O)c2ccc(-c3ccc(C(=O)N4CCN(C(=O)C5(O)CC5)CC4)cc3)cc21 [6-{4-[4-(1-hydroxycyclopropanecarbonyl)piperazine-1-carbonyl]phenyl}-1-methyl-1H-indazol-3-ol]	< 500	–
CNC(=O)c1cccc(-c2ccc(C(=O)N3CCN(C(=O)C4(O)CC4)CC3)cc2)n1 [6-{4-[4-(1-hydroxycyclopropanecarbonyl)piperazine-1-carbonyl]phenyl}-N-methylpyridine-2-carboxamide]	< 500	–
C[C@H](O)C(=O)N1CCN(C(=O)c2ccc(-c3ccccc3)cc2)CC1 [(2S)-2-hydroxy-1-{4-[(4-phenylphenyl)carbonyl]piperazin-1-yl}propan-1-one]	–	IC50 [1]: ≥ 5000 nM
Cc1nn(-c2ccc(C(=O)N3CCN(C(=O)C4(O)CC4)CC3)cc2)c2ccccc12 [(4-(1-hydroxycyclopropane-1-carbonyl)piperazin-1-yl)(4-(3-methyl-1H-indazol-1-yl)phenyl)methanone]	< 500	–
O=C(c1ccc(-c2cccc(NS(=O)(=O)C3CCC3)c2)cc1)N1CCN(C(=O)C2(O)CC2)CC1 [N-(3-{4-[4-(1-hydroxycyclopropanecarbonyl)piperazine-1-carbonyl]phenyl}phenyl)cyclobutanesulfonamide]	< 500	–
O=C(Nc1cccc(-c2ccc(C(=O)N3CCN(C(=O)C4(O)CC4)CC3)cc2)c1)C1CCCC1 [N-(3-{4-[4-(1-hydroxycyclopropanecarbonyl)piperazine-1-carbonyl]phenyl}phenyl)cyclopentanecarboxamide]	< 500	–

The next lines start with results.

IC50 [nM]	SMILES	also measured
< 500	CNC(=O)COc1cccc(-c2ccc(C(=O)N3CCN(C(=O)C4(O)CC4)CC3)cc2)c1 [2-(3-{4-[4-(1-hydroxycyclopropanecarbonyl)piperazine-1-carbonyl]phenyl}phenoxy)-N-methylacetamide]	–
< 500	CC(C)(C#N)c1cccc(-c2ccc(C(=O)N3CCN(C(=O)C4(O)CC4)CC3)cc2)c1 [2-(3-{4-[4-(1-hydroxycyclopropanecarbonyl)piperazine-1-carbonyl]phenyl}phenyl)-2-methylpropanenitrile]	–
< 500	N#CCc1cccc(-c2ccc(C(=O)N3CCN(C(=O)C4(O)CC4)CC3)cc2)c1 [2-(3-{4-[4-(1-hydroxycyclopropanecarbonyl)piperazine-1-carbonyl]phenyl}phenyl)acetonitrile]	–
< 500	CNC(=O)c1cccc(-c2ccc(C(=O)N3CCN(C(=O)C4(O)CC4)CC3)cc2)c1 [3-{4-[4-(1-hydroxycyclopropanecarbonyl)piperazine-1-carbonyl]phenyl}-N-methylbenzamide]	–
< 500	Cn1cnc2cc(-c3ccc(C(=O)N4CCN(C(=O)C5(CO)CC5)CC4)cc3)ccc21 [(1-{4-[4-(1-methyl-1H-1,3-benzodiazol-5-yl)benzoyl]piperazine-1-carbonyl}cyclopropyl)methanol]	–
< 500	Cc1cc2ccccc2n1-c1ccc(C(=O)N2CCN(C(=O)C3(O)CC3)CC2)cc1 [(4-(1-hydroxycyclopropane-1-carbonyl)piperazin-1-yl)(4-(2-methyl-1H-indol-1-yl)phenyl)methanone]	–
